Source: the supplement of paper PMC10307832

What was measured:
Test in all cases: relative viability (nuclei count vs DMSO), 5 days (fraction); higher = more cells survive
Carboplatin + Linsitinib = compound: C1CC(C1)(C(=O)O)C(=O)O.[NH2-].[NH2-].[Pt+2] [Carboplatin] + C[C@]1(O)C[C@@H](c2nc(-c3ccc4ccc(-c5ccccc5)nc4c3)c3c(N)nccn32)C1 [Linsitinib] (partner 1 µM)
Procedure, shortened: (§1)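 Lung cancer cell lines in 1536-well plates were dosed by pin tool the day after seeding, either with one drug alone or with a fixed anchor-drug dose plus five library-drug doses (not always all listed) in √10 steps. After 5 days, cells were fixed and their nuclei stained in one step (final 0.05% Triton X-100, 1% formaldehyde, 1 ug/ml Hoechst), then counted on 4× images. Relative viability is the nuclei count in treated wells divided by that in vehicle wells. Values are medians of duplicate plates.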

Carboplatin + Olaparib = compound: C1CC(C1)(C(=O)O)C(=O)O.[NH2-].[NH2-].[Pt+2] [Carboplatin] + O=C(c1cc(Cc2n[nH]c(=O)c3ccccc23)ccc1F)N1CCN(C(=O)C2CC2)CC1 [Olaparib] (partner 8 µM)
Procedure, shortened: as §1

GSK126 + Alpelisib = compound: CC[C@H](C)N1C=C(C2=C(C=C(C=C21)C3=CN=C(C=C3)N4CCNCC4)C(=O)NCC5=C(C=C(NC5=O)C)C)C [GSK126] + Cc1nc(NC(=O)N2CCC[C@H]2C(N)=O)sc1-c1ccnc(C(C)(C)C(F)(F)F)c1 [Alpelisib] (partner 2 µM)
Procedure, shortened: as §1

GSK126 + Dasatinib = compound: CC[C@H](C)N1C=C(C2=C(C=C(C=C21)C3=CN=C(C=C3)N4CCNCC4)C(=O)NCC5=C(C=C(NC5=O)C)C)C [GSK126] + Cc1nc(Nc2ncc(C(=O)Nc3c(C)cccc3Cl)s2)cc(N2CCN(CCO)CC2)n1 [Dasatinib] (partner 0.075 µM)
Procedure, shortened: as §1

Row | Cell Line | relative viability (Carboplatin + Linsitinib; first compound 0.08 µM) | relative viability (Carboplatin + Linsitinib; first compound 0.253 µM) | relative viability (Carboplatin + Linsitinib; first compound 0.8 µM) | relative viability (Carboplatin + Linsitinib; first compound 2.53 µM) | relative viability (Carboplatin + Linsitinib; first compound 8 µM) | relative viability (Carboplatin + Olaparib; first compound 0.08 µM) | relative viability (Carboplatin + Olaparib; first compound 0.253 µM) | relative viability (Carboplatin + Olaparib; first compound 0.8 µM) | relative viability (Carboplatin + Olaparib; first compound 2.53 µM) | relative viability (Carboplatin + Olaparib; first compound 8 µM) | relative viability (GSK126 + Alpelisib; first compound 0.08 µM) | relative viability (GSK126 + Alpelisib; first compound 0.253 µM) | relative viability (GSK126 + Alpelisib; first compound 0.8 µM) | relative viability (GSK126 + Alpelisib; first compound 2.53 µM) | relative viability (GSK126 + Alpelisib; first compound 8 µM) | relative viability (GSK126 + Dasatinib; first compound 0.08 µM) | relative viability (GSK126 + Dasatinib; first compound 0.253 µM) | relative viability (GSK126 + Dasatinib; first compound 0.8 µM) | relative viability (GSK126 + Dasatinib; first compound 2.53 µM) | relative viability (GSK126 + Dasatinib; first compound 8 µM)
1 | NCI-H2009 | 1.21 | 1.14 | 1.09 | 1.09 | 0.807 | 0.65 | 0.653 | 0.658 | 0.594 | 0.437 | 1.26 | 1.16 | 1.17 | 1.13 | 1.14 | 0.331 | 0.261 | 0.306 | 0.231 | 0.296
2 | NCI-H2405 | 0.957 | 0.871 | 0.882 | 0.833 | 0.842 | 0.965 | 0.926 | 0.841 | 0.821 | 0.66 | 0.774 | 0.664 | 0.827 | 0.761 | 0.667 | 0.203 | 0.207 | 0.188 | 0.19 | 0.189
3 | SK-MES-1 | 1.11 | 1.05 | 1.04 | 1.01 | 0.936 | 0.843 | 0.748 | 0.646 | 0.621 | 0.537 | 0.901 | 0.878 | 0.92 | 0.868 | 0.996 | 0.446 | 0.47 | 0.307 | 0.305 | 0.373
4 | NCI-H322M | 0.915 | 0.956 | 0.785 | 0.812 | 0.799 | 0.761 | 0.818 | 0.779 | 0.686 | 0.65 | 0.819 | 0.836 | 0.817 | 0.78 | 0.737 | 0.247 | 0.252 | 0.266 | 0.278 | 0.27
5 | NCI-H2085 | 0.943 | 0.967 | 0.845 | 0.858 | 0.764 | 0.817 | 0.844 | 0.761 | 0.786 | 0.687 | 1.07 | 0.912 | 1 | 0.906 | 0.995 | 0.248 | 0.234 | 0.285 | 0.287 | 0.217
6 | PC-3 [JPC-3] | 0.953 | 0.942 | 0.888 | 0.919 | 0.931 | 1.23 | 1.14 | 1.12 | 1.04 | 0.835 | 1.04 | 1.13 | 1.05 | 1.02 | 1.07 | 1.12 | 0.997 | 0.997 | 1.02 | 0.978
7 | NCI-H1355 | 0.971 | 0.805 | 0.838 | 0.869 | 0.727 | 0.808 | 0.734 | 0.677 | 0.694 | 0.595 | 0.935 | 0.836 | 0.762 | 0.876 | 0.901 | 0.842 | 0.733 | 0.705 | 0.842 | 0.727
8 | NCI-H838 | 1.03 | 1.09 | 0.961 | 0.958 | 1 | 0.773 | 0.746 | 0.757 | 0.683 | 0.575 | 1.12 | 0.982 | 0.866 | 0.845 | 0.809 | 0.344 | 0.308 | 0.313 | 0.266 | 0.209
9 | NCI-H1755 | 1.12 | 0.947 | 1.03 | 1.02 | 0.952 | 0.861 | 0.895 | 0.88 | 0.854 | 0.784 | 0.927 | 0.974 | 0.951 | 0.866 | 0.883 | 0.502 | 0.49 | 0.405 | 0.448 | 0.428
10 | NCI-H1651 | 0.918 | 1.06 | 0.82 | 0.9 | 0.509 | 0.191 | 0.199 | 0.185 | 0.166 | 0.161 | 1.13 | 0.946 | 0.933 | 0.938 | 0.936 | 0.534 | 0.427 | 0.363 | 0.443 | 0.45
11 | NCI-H650 | 1.15 | 0.859 | 0.982 | 0.848 | 0.503 | 0.419 | 0.388 | 0.37 | 0.365 | 0.285 | 1.24 | 1.11 | 1.17 | 1.23 | 0.993 | 0.468 | 0.493 | 0.432 | 0.39 | 0.455
12 | LK-2 | 0.634 | 0.765 | 0.458 | 0.428 | 0.726 | 0.743 | 0.702 | 0.726 | 0.65 | 0.844 | 1.09 | 0.993 | 0.734 | 1.13 | 0.876 | 0.361 | 0.336 | 0.196 | 0.41 | 0.259
13 | HCC-366 | 0.848 | 0.595 | 0.48 | 0.437 | 0.265 | 0.387 | 0.363 | 0.364 | 0.288 | 0.208 | 0.452 | 0.342 | 0.381 | 0.546 | 0.409 | 0.77 | 0.654 | 0.586 | 0.696 | 0.591
14 | PC-14 | 0.979 | 0.931 | 0.939 | 0.921 | 0.55 | 0.266 | 0.266 | 0.171 | 0.118 | 0.0838 | 0.946 | 0.993 | 0.899 | 0.826 | 0.852 | 0.261 | 0.236 | 0.231 | 0.255 | 0.222
15 | NCI-H441 | 0.608 | 0.506 | 0.662 | 0.544 | 0.573 | 0.465 | 0.497 | 0.499 | 0.486 | 0.259 | 0.756 | 0.717 | 0.76 | 0.566 | 0.753 | 0.618 | 0.688 | 0.458 | 0.796 | 0.407
16 | NCI-H1395 | 1.02 | 1.05 | 0.82 | 0.751 | 0.576 | 0.509 | 0.467 | 0.505 | 0.41 | 0.46 | 1.12 | 0.937 | 1.08 | 1.2 | 1.03 | 0.464 | 0.439 | 0.406 | 0.399 | 0.427
